In one experiment the test system is KKAy mice. As to the kind of experiment: In vivo study of the lowering effect on plasma glucose and plasma insulin in KKAy mouse model.
In the next experiment the target is 11β-HSD1 (Homo sapiens (Human), UniProt P28845). As to the kind of experiment: 11β-HSD1 inhibiting activity, HTRF assay with human microsomal fractions. Type of experiment: biochemical. To be noted: 160 nM cortisone, 200 μM NADPH, 2 h at 37° C. Here is the method:
The inhibiting activity of 11β-HSD1 derived from microsomal fractions was measured using the HTRF assay (62CO2PEB, Cisbio). […] Europium (Eu^3+) cryptate and XL665-conjugated cortisol were then added to each well and incubated for an additional 2 h at room temperature. The Cortisol concentration was calculated u sing a calibration curve. The IC50 values were calculated from dose response curves using GraphPad Prism software.

The mark [1] stands for this setting: oral, 100 mg/kg, 3 weeks, after fasting.

Sequence of 11β-HSD1 (P28845 whole entry): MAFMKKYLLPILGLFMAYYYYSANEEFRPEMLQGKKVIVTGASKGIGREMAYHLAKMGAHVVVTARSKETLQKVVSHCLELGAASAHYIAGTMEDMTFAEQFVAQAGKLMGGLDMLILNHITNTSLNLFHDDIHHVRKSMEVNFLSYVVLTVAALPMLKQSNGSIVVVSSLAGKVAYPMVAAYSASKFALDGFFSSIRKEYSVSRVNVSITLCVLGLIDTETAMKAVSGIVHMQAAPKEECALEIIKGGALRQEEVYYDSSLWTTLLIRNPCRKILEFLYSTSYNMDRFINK

For `NC(=O)C12CC3CC(C1)C(NC(=O)c1cccc([N-]S(=O)(=O)c4cccc(Cl)c4F)c1)C(C3)C2.[Na+]` (stereo not shown) [Example 113, E-sodium[3-((5-carbamoyladamantan-2-yl)carbamoyl)phenyl]-2-fluoro-3-chloro-benzenesulfonylamide], the “levels of plasma glucose and plasma insulin” value in the experiment on KKAy mice (either 100 mg/kg or 50 mg/kg) is reported as “significantly reduced”. In the experiment with KKAy mice (setting [1]), the “Plasma glucose lowering effect” value is given as 28% and the “Plasma insulin lowering effect” value came out at 60%. The IC50 at 11β-HSD1 came to 2.7 nM.
